Data published in PMC9896599, “Biogenesis of flavor-related linalool is diverged and genetically conserved in tree peony (Paeonia × suffruticosa)” (Horticulture Research, 2022).

Columns and labels:
Type in all cases: biochemical
Settings in all cases: 10 uM GPP, 30 mM KCl, 5 mM MgCl2, 1 mM MnCl2, 50 mM HEPES pH 7.5, 30 °C, 1 h
[1] = biological target: T1, PdTPS4 (Paeonia delavayi, UniProt A0A9E8GE34); assay: GC-MS of headspace product (linalool)
T1 construct: full-length cDNA, C-terminal His6, E. coli Transetta (DE3), Ni-NTA purified; the five PdTPS are 553-600 residues, about 65 kDa; plastid-localized
T1 sequence (A0A9E8GE34 entry or part of it): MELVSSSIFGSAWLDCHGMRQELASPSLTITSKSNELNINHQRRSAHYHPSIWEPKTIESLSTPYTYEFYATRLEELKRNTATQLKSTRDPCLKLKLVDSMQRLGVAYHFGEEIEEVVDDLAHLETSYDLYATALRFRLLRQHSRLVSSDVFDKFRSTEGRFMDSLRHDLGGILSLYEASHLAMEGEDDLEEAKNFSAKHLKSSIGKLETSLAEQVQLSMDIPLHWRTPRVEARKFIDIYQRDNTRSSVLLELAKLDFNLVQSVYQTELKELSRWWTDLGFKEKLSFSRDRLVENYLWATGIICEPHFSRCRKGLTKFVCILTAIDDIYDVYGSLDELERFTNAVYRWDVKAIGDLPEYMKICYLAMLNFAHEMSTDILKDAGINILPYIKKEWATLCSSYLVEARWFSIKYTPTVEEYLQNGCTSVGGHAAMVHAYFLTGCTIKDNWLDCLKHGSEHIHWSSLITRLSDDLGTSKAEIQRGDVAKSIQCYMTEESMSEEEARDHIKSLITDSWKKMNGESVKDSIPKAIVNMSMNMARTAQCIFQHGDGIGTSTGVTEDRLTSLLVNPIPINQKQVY

[2] = biological target: T2, PdTPS3 (Paeonia delavayi, UniProt A0A9E8G7R5); assay: GC-MS of headspace product (geraniol)
T2 construct: full-length cDNA, C-terminal His6, E. coli Transetta (DE3), Ni-NTA purified; the five PdTPS are 553-600 residues, about 65 kDa; plastid-localized
T2 sequence (A0A9E8G7R5 entry or part of it): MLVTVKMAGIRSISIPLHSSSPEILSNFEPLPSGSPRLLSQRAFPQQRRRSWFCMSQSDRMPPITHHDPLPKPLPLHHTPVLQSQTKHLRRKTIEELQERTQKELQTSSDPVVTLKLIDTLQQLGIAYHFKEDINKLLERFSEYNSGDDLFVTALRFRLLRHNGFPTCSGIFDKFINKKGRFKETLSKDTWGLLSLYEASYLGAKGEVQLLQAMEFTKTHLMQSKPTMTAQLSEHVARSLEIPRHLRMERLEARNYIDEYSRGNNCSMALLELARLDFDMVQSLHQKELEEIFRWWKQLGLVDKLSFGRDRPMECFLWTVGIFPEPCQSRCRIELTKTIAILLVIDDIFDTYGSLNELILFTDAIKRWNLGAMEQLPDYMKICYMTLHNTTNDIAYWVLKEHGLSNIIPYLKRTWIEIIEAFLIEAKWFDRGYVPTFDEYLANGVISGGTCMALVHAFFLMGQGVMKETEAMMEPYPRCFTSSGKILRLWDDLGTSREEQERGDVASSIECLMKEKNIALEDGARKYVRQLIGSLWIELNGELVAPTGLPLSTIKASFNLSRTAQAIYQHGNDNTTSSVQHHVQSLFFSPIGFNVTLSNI

[3] = biological target: T3, PdTPS1 (Paeonia delavayi, UniProt A0A9E8GEC8); assay: GC-MS of headspace product (linalool)
T3 construct: full-length cDNA, C-terminal His6, E. coli Transetta (DE3), Ni-NTA purified; the five PdTPS are 553-600 residues, about 65 kDa; plastid-localized
T3 sequence (A0A9E8GEC8 entry or part of it): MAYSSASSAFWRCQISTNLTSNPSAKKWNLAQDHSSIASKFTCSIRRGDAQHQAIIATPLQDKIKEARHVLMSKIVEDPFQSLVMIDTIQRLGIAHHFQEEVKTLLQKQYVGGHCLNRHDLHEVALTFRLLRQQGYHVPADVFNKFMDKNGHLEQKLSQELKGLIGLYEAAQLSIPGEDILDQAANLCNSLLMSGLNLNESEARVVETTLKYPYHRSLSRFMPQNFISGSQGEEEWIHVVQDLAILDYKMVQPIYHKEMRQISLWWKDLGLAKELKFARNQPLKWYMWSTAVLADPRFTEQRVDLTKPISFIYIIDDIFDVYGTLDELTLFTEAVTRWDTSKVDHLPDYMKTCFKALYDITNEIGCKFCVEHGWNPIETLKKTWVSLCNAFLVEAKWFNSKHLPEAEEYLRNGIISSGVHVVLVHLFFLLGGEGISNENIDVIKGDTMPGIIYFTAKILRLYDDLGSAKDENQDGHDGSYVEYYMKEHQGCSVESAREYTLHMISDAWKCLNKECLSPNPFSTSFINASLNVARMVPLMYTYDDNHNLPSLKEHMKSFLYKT

`CC(C)=CCC/C(C)=C/COP(=O)(O)OP(=O)(O)O` [GPP] was tested, and the “GC-MS of headspace product (linalool)” value [1] was “both PdTPS1 and PdTPS4 catalyzed the formation of acyclic terpene alcohols with linalool”, the “GC-MS of headspace product (geraniol)” value [2] was “The reaction products catalyzed by PdTPS3 with GPP formed geraniol rather than linalool” and the “GC-MS of headspace product (linalool)” value [3] was “both PdTPS1 and PdTPS4 catalyzed the formation of acyclic terpene alcohols with linalool”.
